Assays:
A2058 = experiment: Cell growth inhibition assay (CellTiter-Glo); format: cell-based, human; conditions: for IC50: Homo sapiens, 96 h, 4 days incubation; for Selectivity vs. IMR-90, A2058: ratio IC50[IMR-90]:IC50[tumor cell line]
Protocol: (§1) Cell Culture and Cell Growth Inhibition Assay.
(§2) The chosen cell lines are all human cancer cell lines except for the 4T1 murine breast cancer line, representing a wide variety of cancer types including breast (MDA-MB-453), kidney (A498), lung (H1975), pancreatic (PANC-1) and endometrial cancer (AN3CA, HEC-1A, and RL95-2), glioblastoma (U251 and U-87MG), melanoma (A2058 and LOXIMVI) and uterine sarcoma (MES-SA). All the cancer cell lines can be obtained from the American Type Culture Collection (ATCC, Manassas, Va., USA) with the exception of U251 which can be provided by the National Cancer Institute Tumor Repository (Frederick, Md.) and is cultured in the standard tissue culture media appropriate for each cell line. All the culture media are supplemented with 10% fetal bovine serum (FBS), 100 I.U./mL penicillin and 100 μg/mL streptomycin. For the cell growth inhibition assay, the cells are seeded in 96-well tissue culture plates at 500-3000 cells/well (seeding density empirically adjusted for each cell line based on growth rate optimization). The cells are allowed to attach for a minimum of 5 h prior to compound administration. The cells are incubated for a period of 4 days after compound addition. Following the incubation period, CellTiter-Glo reagent (Promega, Madison, Wis., USA) is added to all the wells to assess cell proliferation/viability. Luminescence is measured using an Envision microplate reader (Perkin Elmer, Waltham, Mass., USA). The IC50 values were calculated as the concentration which inhibited cell growth to 50% of DMSO control treated cell populations.

H522-T1 = experiment: Cell growth inhibition assay (CellTiter-Glo); format: cell-based, human; conditions: for IC50: Homo sapiens, 96 h, 4 days incubation; for Selectivity vs. IMR-90, H522-T1: ratio IC50[IMR-90]:IC50[tumor cell line]
Protocol: as §1, §2

[1] = test system: IMR-90 human fibroblast cells; experiment: IMR-90 cytotoxicity assay; format: cell-based; conditions: IMR-90, 72 h, read-out: IC50 (nM) Quiescent IMP-90
From the text: IMR-90 Cytotoxicity Assay.
To evaluate the effect of compounds of the invention on non-proliferating normal cells, an in vitro cytotoxicity assay developed to distinguish between true antiproliferative activity and general cellular cytotoxicity unrelated to proliferation was used. Rudolph-Owen L A, Salvato K, Cheng C, Wu J, Towle M J and Littlefield B A: A 96-well plate cell-based assay to quantify undesired cytotoxic effects against quiescent non-dividing cells. Proc Amer Assoc Cancer Res 45: 264-265, 2004. In brief, IMR-90 human fibroblast cells, obtained from ATCC, were grown for 4 days to confluency in MEM containing 10% FBS and supplemented with L-glutamine, penicillin/streptomycin. After washing, the medium was replaced with complete MEM containing 0.1% FBS and the cells were cultured for 3 additional days to achieve complete quiescence. A compound of the invention or vehicle control was then added in the continued presence of 0.1% FBS, followed by incubation for 3 days at 37° C. Cell viability was assessed by the measurement of cellular ATPlevels using CellTiter-Glo reagent (Promega).

translation = conditions: in vitro assay; mean ± standard deviation; read-out: translation inhibition (EC50 nM) in vitro assay; cited from earlier work
Hela [2] = conditions: cell-based assay, read-out: translation inhibition (EC50 nM) cell-based assay Hela; cited from earlier work
SK-MEL-S [3] = conditions: cell-based assay, read-out: translation inhibition (EC50 nM) cell-based assay SK-MEL-S; cited from earlier work
Hela [4] = conditions: read-out: cytotoxicity (IC50 nM) Hela, CellTiter-Glo, mean ± standard deviation; cited from earlier work
SK-MEL-S [5] = conditions: read-out: cytotoxicity (IC50 nM) SK-MEL-S, CellTiter-Glo, mean ± standard deviation; cited from earlier work
HCT-116 = experiment: Cell growth inhibition assay (CellTiter-Glo); format: cell-based, human; conditions: for IC50: Homo sapiens, 96 h, 4 days incubation; for Selectivity vs. IMR-90, HCT-116: ratio IC50[IMR-90]:IC50[tumor cell line]
Protocol: as §1, §2

BXPC-3 = conditions: pancreas BXPC-3; cited from earlier work
MCF-7 = conditions: breast MCF-7; cited from earlier work
SF-268 = conditions: CNS SF-268; cited from earlier work
NCI-H460 = conditions: lung NCI-H460; cited from earlier work
KM20L2 = conditions: colon KM20L2; cited from earlier work
DU-145 = conditions: prostate DU-145; cited from earlier work
[6] = test system: P388 murine lymphocytic leukemia cell line; conditions: cited from earlier work
ACHN = conditions: kidney; cited from earlier work
DU145 = conditions: DU145, prostate; cited from earlier work
H226 = conditions: H226, lung; cited from earlier work
HOP62 = conditions: HOP62, lung; cited from earlier work
MB231 = conditions: MB231, breast; cited from earlier work
MKN45 = conditions: MKN45, gastric; cited from earlier work
PC3 = conditions: PC3, prostate; cited from earlier work
SW620 = conditions: SW620, colon; cited from earlier work
NHDF = conditions: normal; cited from earlier work

Compound: C=C(C)C[C@H](OC)[C@H](O)C(=O)N[C@@H](OC)[C@@H]1C/C(=N/OC)C(C)(C)[C@@H](C[C@H](O)[C@@H](C)[C@H]2Cc3c(C)c(O)cc(O)c3C(=O)O2)O1 (stereo in doubt) [C(11)-O-Methyloxime-Irciniastatin B]
- IC50 (A2058): 0.5 nM
- Selectivity vs. IMR-90, A2058 (A2058): 92
- IC50 (H522-T1): 0.8 nM
- Selectivity vs. IMR-90, H522-T1 (H522-T1): 58
- IC50 [1]: 46 nM

Compound: C=C(C)C[C@H](OC)[C@H](O)C(=O)N[C@@H](OC)[C@@H]1C[C@@H](O)C(C)(C)[C@@H](C[C@H](O)[C@@H](C)C2Cc3c(C)c(O)cc(O)c3C(=O)O2)O1 (stereo partly shown) [1a]
- EC50 (translation): 28 ± 7 nM
- EC50 (Hela [2]): 22 ± 1.4 nM
- EC50 (SK-MEL-S [3]): 33 ± 10 nM
- IC50 (Hela [4]): 0.64 ± 0.14 nM
- IC50 (SK-MEL-S [5]): 0.27 ± 0.04 nM

Compound: C=C(C)C[C@H](OC)[C@H](O)C(=O)N[C@@H](OC)[C@@H]1CC(=C)C(C)(C)[C@@H](C[C@H](O)[C@@H](C)[C@H]2Cc3c(C)c(O)cc(O)c3C(=O)O2)O1 [C(11)-Exomethylene-Irciniastatin B]
- IC50 (A2058): 0.7 nM
- Selectivity vs. IMR-90, A2058 (A2058): 70
- IC50 (H522-T1): 1.6 nM
- Selectivity vs. IMR-90, H522-T1 (H522-T1): 31
- IC50 (HCT-116): 1 nM
- Selectivity vs. IMR-90, HCT-116 (HCT-116): 49
- IC50 [1]: 49 nM

Compound: C=C(C)C[C@H](OC)[C@H](O)C(=O)N[C@@H](OC)[C@@H]1C[C@@H](OC(C)=O)C(C)(C)[C@@H](C[C@H](O)[C@@H](C)[C@H]2Cc3c(C)c(O)cc(O)c3C(=O)O2)O1 [C(11)-OAc-Irciniastatin A]
- IC50 (A2058): 0.4 nM
- Selectivity vs. IMR-90, A2058 (A2058): 68
- IC50 (H522-T1): 0.7 nM
- Selectivity vs. IMR-90, H522-T1 (H522-T1): 39
- IC50 (HCT-116): 2 nM
- Selectivity vs. IMR-90, HCT-116 (HCT-116): 14
- IC50 [1]: 27 nM

Compound: C=C(C)C[C@H](OC)[C@H](O)C(=O)N[C@@H](OC)[C@@H]1C[C@@H](OC(=O)c2ccccc2)C(C)(C)[C@@H](C[C@H](O)[C@@H](C)[C@H]2Cc3c(C)c(O)cc(O)c3C(=O)O2)O1 [C(11)-Obz-Irciniastatin A, C(11)-OBz-Irciniastatin A]
- IC50 (A2058): 2.7 nM
- Selectivity vs. IMR-90, A2058 (A2058): 30
- IC50 (H522-T1): 5.4 nM
- Selectivity vs. IMR-90, H522-T1 (H522-T1): 15
- IC50 [1]: 81 nM

Compound: C=C(C)C[C@H](OC)[C@H](O)C(=O)N[C@@H](OC)[C@@H]1CC(=O)C(C)(C)[C@@H](C[C@H](O)[C@@H](C)[C@H]2Cc3c(C)c(O)cc(O)c3C(=O)O2)O1 [Irciniastatin B, (−)-Irciniastatin B]
- IC50 (A2058): 0.5 nM
- Selectivity vs. IMR-90, A2058 (A2058): 114
- IC50 (H522-T1): 0.8 nM
- Selectivity vs. IMR-90, H522-T1 (H522-T1): 71
- IC50 (HCT-116): 3 nM
- Selectivity vs. IMR-90, HCT-116 (HCT-116): 19
- IC50 [1]: 57 nM
- Growth Inhibition of Cancer Cell Lines (GI50) (BXPC-3): 0.73 ng/mL
- Growth Inhibition of Cancer Cell Lines (GI50) (MCF-7): 0.5 ng/mL
- Growth Inhibition of Cancer Cell Lines (GI50) (SF-268): 0.66 ng/mL
- Growth Inhibition of Cancer Cell Lines (GI50) (NCI-H460): 1.2 ng/mL
- Growth Inhibition of Cancer Cell Lines (GI50) (KM20L2): 2.1 ng/mL
- Growth Inhibition of Cancer Cell Lines (GI50) (DU-145): 1.6 ng/mL
- Growth Inhibition of Cancer Cell Lines (GI50) [6]: 6 ng/mL

Compound: C=C(C)C[C@@H](OC)[C@H](O)C(=O)N[C@@H](OC)[C@@H]1C[C@@H](O)C(C)(C)[C@@H](C[C@H](O)[C@@H](C)C2Cc3c(C)c(O)cc(O)c3C(=O)O2)O1 (stereo partly shown) [compound 3]
- EC50 (translation): 346 ± 64 nM
- EC50 (Hela [2]): 4950 ± 4870 nM
- EC50 (SK-MEL-S [3]): 495 nM
- IC50 (Hela [4]): 614 ± 267 nM
- IC50 (SK-MEL-S [5]): 352 ± 12.1 nM

Compound: C=C(C)C[C@H](OC)[C@H](O)C(=O)N[C@H](OC)[C@@H]1C[C@@H](O)C(C)(C)[C@@H](C[C@H](O)[C@@H](C)C2Cc3c(C)c(O)cc(O)c3C(=O)O2)O1 (stereo partly shown) [compound 4]
- EC50 (translation): 318 ± 182 nM
- EC50 (Hela [2]): 2200 ± 1410 nM
- EC50 (SK-MEL-S [3]): 843 nM
- IC50 (Hela [4]): > 1000 nM
- IC50 (SK-MEL-S [5]): 763 ± 70 nM

Compound: C=C(C)C[C@H](OC)[C@H](O)C(=O)N[C@@H](OC)[C@@H]1C[C@@H](O)C(C)(C)[C@@H](C[C@H](O)COC)O1 [compound 5]
- EC50 (translation): 641 ± 262 nM
- EC50 (Hela [2]): 1650 ± 1060 nM
- EC50 (SK-MEL-S [3]): 578 nM
- IC50 (Hela [4]): > 1000 nM
- IC50 (SK-MEL-S [5]): > 1000 nM

Compound: C=C(C)C[C@H](OC)[C@H](O)C(=O)N[C@H](OC)[C@@H]1C[C@@H](O)C(C)(C)[C@@H](C[C@H](O)COC)O1 [compound 6]
- EC50 (translation): > 10000 nM
- EC50 (Hela [2]): > 10000 nM
- EC50 (SK-MEL-S [3]): > 10000 nM
- IC50 (Hela [4]): > 1000 nM
- IC50 (SK-MEL-S [5]): > 1000 nM

Compound: Cc1c(O)cc(O)c2c1CC([C@H](C)[C@@H](O)C[C@H]1O[C@H](C(N)=O)C[C@@H](O)C1(C)C)OC2=O (stereo partly shown) [compound 7]
- EC50 (translation): > 10000 nM
- EC50 (Hela [2]): > 10000 nM
- EC50 (SK-MEL-S [3]): > 10000 nM
- IC50 (Hela [4]): > 1000 nM
- IC50 (SK-MEL-S [5]): > 1000 nM

Compound: C=C1C[C@](OC)([C@H](O)C(=O)NC2OCO[C@H]3[C@@H]2O[C@H](C[C@H](O)CO)C(C)(C)[C@@H]3OC)O[C@H](C)[C@@H]1C (stereo partly shown) [compound 8]
- EC50 (translation): 238 ± 44 nM
- EC50 (Hela [2]): 59 ± 32 nM
- EC50 (SK-MEL-S [3]): 64 nM
- IC50 (Hela [4]): 2.52 ± 1.39 nM
- IC50 (SK-MEL-S [5]): 3.79 ± 0.04 nM

Compound: C[C@@H]1C[C@@H]([C@H](O)CC2CC(=O)NC(=O)C2)C(=O)[C@@H](C)C1 [cycloheximide]
- EC50 (translation): 3150 ± 2350 nM
- EC50 (Hela [2]): 3320 ± 434 nM
- EC50 (SK-MEL-S [3]): 2670 nM
- IC50 (Hela [4]): 2290 ± 1520 nM
- IC50 (SK-MEL-S [5]): 3130 ± 764 nM

Compound: C=C(C)C[C@H](OC)[C@H](O)C(=O)N[C@@H](OC)[C@@H]1C[C@H](O)C(C)(C)[C@@H](C[C@H](O)[C@@H](C)[C@H]2Cc3c(C)c(O)cc(O)c3C(=O)O2)O1 [epi-C(11)-Irciniastatin A]
- IC50 (A2058): 0.4 nM
- Selectivity vs. IMR-90, A2058 (A2058): 85
- IC50 (H522-T1): 0.9 nM
- Selectivity vs. IMR-90, H522-T1 (H522-T1): 38
- IC50 (HCT-116): 3 nM
- Selectivity vs. IMR-90, HCT-116 (HCT-116): 11
- IC50 [1]: 34 nM

Compound: C11-Deoxyirciniastatin [compound 29]
- IC50 (ACHN): 0.265 ± 0.008 nM
- IC50 (DU145): 0.149 ± 0.005 nM
- IC50 (H226): 0.034 ± 0.004 nM
- IC50 (HOP62): 0.055 ± 0.002 nM
- IC50 (MB231): 0.142 ± 0.007 nM
- IC50 (MKN45): 0.076 ± 0.004 nM
- IC50 (PC3): 0.073 ± 0.006 nM
- IC50 (SW620): 0.16 ± 0.015 nM
- IC50 (NHDF): 0.066 ± 0.004 nM

Reference: US9540355B2, “Irciniastatin analogues” (priority 2013, dated 2017)
